Source: US12077503B2, “Substituted cyclic amides and their use as herbicides” (FMC CORPORATION, priority 2015, dated 2024)

Experiments:
Assay type in all cases: in vivo
[1] = test system: barnyardgrass (Echinochloa crus-galli); test: Test A preemergence; details: Echinochloa crus-galli, pre-emergence, 240 h, 0 to 100 scale where 0 is no effect and 100 is complete control, read-out: Barnyardgrass plant response rating
Outline: (§1)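 Each rating is a visual injury score from 0 to 100 given about 10 d after treatment, judged against untreated controls kept alongside in the greenhouse. In loam soil–sand blend, seeds got a preemergence directed soil spray, while postemergence plants were 2 to 10 cm tall at spraying.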

[2] = test system: Kochia (Kochia scoparia); test: Test A preemergence; details: Bassia scoparia, pre-emergence, 240 h, 0 to 100 scale where 0 is no effect and 100 is complete control, read-out: Kochia plant response rating
Outline: as §1

[3] = test system: ragweed (common ragweed, Ambrosia elatior); test: Test A preemergence; details: Ambrosia artemisiifolia, pre-emergence, 240 h, 0 to 100 scale where 0 is no effect and 100 is complete control, read-out: Ragweed plant response rating
Outline: as §1

[4] = test system: ryegrass, Italian (Italian ryegrass, Lolium multiflorum); test: Test A preemergence; details: Lolium multiflorum, pre-emergence, 240 h, 0 to 100 scale where 0 is no effect and 100 is complete control, read-out: Ryegrass, Italian plant response rating
Outline: as §1

[5] = test system: pigweed (Amaranthus retroflexus); test: Test A preemergence; details: Amaranthus retroflexus, pre-emergence, 240 h, 0 to 100 scale where 0 is no effect and 100 is complete control, read-out: Pigweed plant response rating
[6] = test system: giant foxtail (Setaria faberii); test: Test A preemergence; details: Setaria faberi, pre-emergence, 240 h, 0 to 100 scale where 0 is no effect and 100 is complete control, read-out: Foxtail, Giant plant response rating
Outline: as §1

[7] = test system: barnyardgrass (Echinochloa crus-galli); test: Test A postemergence; details: Echinochloa crus-galli, post-emergence, 240 h
Outline: as §1

[8] = test system: Kochia (Kochia scoparia); test: Test A postemergence; details: Bassia scoparia, post-emergence, 240 h
Outline: as §1

[9] = test system: ragweed (common ragweed, Ambrosia elatior); test: Test A postemergence; details: Ambrosia artemisiifolia, post-emergence, 240 h, 125 g ai/ha, postemergence, visual injury vs untreated controls after approx. 10 d; 0 = no effect, 100 = complete control; read-out: Ragweed plant response rating (0 to 100 scale)
Outline: as §1

[10] = test system: ryegrass, Italian (Italian ryegrass, Lolium multiflorum); test: Test A postemergence; details: Lolium multiflorum, post-emergence, 240 h, 125 g ai/ha, postemergence, visual injury vs untreated controls after approx. 10 d; 0 = no effect, 100 = complete control; read-out: Ryegrass, Italian plant response rating (0 to 100 scale)
Outline: as §1

[11] = test system: pigweed (Amaranthus retroflexus); test: Test A postemergence; details: Amaranthus retroflexus, post-emergence, 240 h, 125 g ai/ha, postemergence, visual injury vs untreated controls after approx. 10 d; 0 = no effect, 100 = complete control; read-out: Pigweed plant response rating (0 to 100 scale)
Outline: as §1

[12] = test system: Galium (catchweed bedstraw, Galium aparine); test: Test A postemergence; details: Galium, post-emergence, 240 h
Outline: as §1

[13] = test system: blackgrass (Alopecurus myosuroides); test: Test A postemergence; details: Alopecurus myosuroides, post-emergence, 240 h
Outline: as §1

[14] = test system: corn (Zea mays); test: Test A postemergence; details: Zea mays, post-emergence, 240 h
Outline: as §1

[15] = test system: giant foxtail (Setaria faberii); test: Test A postemergence; details: Setaria faberi, post-emergence, 240 h
Outline: as §1

[16] = test system: wheat (Triticum aestivum); test: Test A postemergence; details: Triticum aestivum, post-emergence, 240 h, 125 g ai/ha, postemergence, visual injury vs untreated controls after approx. 10 d; 0 = no effect, 100 = complete control; read-out: Wheat plant response rating (0 to 100 scale)
Outline: as §1

[17] = test system: barnyardgrass (Echinochloa crus-galli); test: Test B flooded paddy test; details: Echinochloa crus-galli, 250 g ai/ha, Flood; 0 to 100 scale where 0 is no effect and 100 is complete control; read-out: Barnyardgrass plant response rating
Outline: (§2)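 Visual ratings (0 none to 100 complete control) are relative to untreated plants, taken 13–15 d after treatment in a greenhouse. Test material went straight into floodwater standing 3 cm above the soil, kept constant, on plants at the 2-leaf stage.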

[18] = test system: ducksalad (Heteranthera limosa); test: Test B flooded paddy test; details: Heteranthera limosa, 250 g ai/ha, Flood; 0 to 100 scale where 0 is no effect and 100 is complete control; read-out: Ducksalad plant response rating
Outline: as §2

[19] = test system: rice (Oryra sativa); test: Test B flooded paddy test; details: Oryza sativa, 250 g ai/ha, Flood; 0 to 100 scale where 0 is no effect and 100 is complete control; read-out: Rice plant response rating
Outline: as §2

[20] = test system: sedge, umbrella (small-flower umbrella sedge, Cyperus difformis); test: Test B flooded paddy test; details: Cyperus difformis, 250 g ai/ha, Flood; 0 to 100 scale where 0 is no effect and 100 is complete control; read-out: Sedge, Umbrella plant response rating
Outline: as §2

[21] = 125 g ai/ha, preemergence, approx. 10 d

## CN1C[C@H](c2ccc(C(F)(F)F)c(O)c2)[C@@H](C(=O)Nc2cccc(F)c2F)C1=O [Compound 1173]
[1]; 31 g ai/ha, Preemergence
  pest or weed control at 31 g/ha: 60%
[1]; [21]
  pest or weed control at 125 g/ha: 90%
[2]; 31 g ai/ha, Preemergence
  pest or weed control at 31 g/ha: 0%
[2]; [21]
  pest or weed control at 125 g/ha: 20%
[3]; 31 g ai/ha, Preemergence
  pest or weed control at 31 g/ha: 0%
[3]; [21]
  pest or weed control at 125 g/ha: 40%
[4]; 31 g ai/ha, Preemergence
  pest or weed control at 31 g/ha: 0%
[4]; [21]
  pest or weed control at 125 g/ha: 30%
[5]; 31 g ai/ha, Preemergence
  pest or weed control at 31 g/ha: 0%
[5]; [21]
  pest or weed control at 125 g/ha: 0%
[6]; 31 g ai/ha, Preemergence
  pest or weed control at 31 g/ha: 30%
[6]; [21]
  pest or weed control at 125 g/ha: 80%
[7]; 125 g ai/ha, postemergence, visual injury vs untreated controls after approx. 10 d, 0 = no effect, 100 = complete control, read-out: Barnyardgrass plant response rating (0 to 100 scale)
  pest or weed control at 125 g/ha: 70%
[7]; Postemergence, 31 g ai/ha, visual injury after approx. 10 d, 0 to 100 scale, 0 no effect, 100 complete control, read-out: Plant response rating, Barnyardgrass
  pest or weed control at 31 g/ha: 50%
[8]; 125 g ai/ha, postemergence, visual injury vs untreated controls after approx. 10 d, 0 = no effect, 100 = complete control, read-out: Kochia plant response rating (0 to 100 scale)
  pest or weed control at 125 g/ha: 50%
[8]; Postemergence, 31 g ai/ha, visual injury after approx. 10 d, 0 to 100 scale, 0 no effect, 100 complete control, read-out: Plant response rating, Kochia
  pest or weed control at 31 g/ha: 30%
[9]
  pest or weed control at 125 g/ha: 10%
[10]
  pest or weed control at 125 g/ha: 20%
[11]
  pest or weed control at 125 g/ha: 50%
[12]; 125 g ai/ha, postemergence, visual injury vs untreated controls after approx. 10 d, 0 = no effect, 100 = complete control, read-out: Galium plant response rating (0 to 100 scale)
  pest or weed control at 125 g/ha: 50%
[12]; Postemergence, 31 g ai/ha, visual injury after approx. 10 d, 0 to 100 scale, 0 no effect, 100 complete control, read-out: Plant response rating, Galium
  pest or weed control at 31 g/ha: 0%
[13]; 125 g ai/ha, postemergence, visual injury vs untreated controls after approx. 10 d, 0 = no effect, 100 = complete control, read-out: Blackgrass plant response rating (0 to 100 scale)
  pest or weed control at 125 g/ha: 0%
[13]; Postemergence, 31 g ai/ha, visual injury after approx. 10 d, 0 to 100 scale, 0 no effect, 100 complete control, read-out: Plant response rating, Blackgrass
  pest or weed control at 31 g/ha: 0%
[14]; 125 g ai/ha, postemergence, visual injury vs untreated controls after approx. 10 d, 0 = no effect, 100 = complete control, read-out: Corn plant response rating (0 to 100 scale)
  plant injury at 125 g/ha: 0%
[14]; Postemergence, 31 g ai/ha, visual injury after approx. 10 d, 0 to 100 scale, 0 no effect, 100 complete control
  Corn plant response rating (crop injury, 0 = no effect, 100 = complete kill) at 31 g/ha: 0%
[15]; 125 g ai/ha, postemergence, visual injury vs untreated controls after approx. 10 d, 0 = no effect, 100 = complete control, read-out: Foxtail, Giant plant response rating (0 to 100 scale)
  pest or weed control at 125 g/ha: 80%
[15]; Postemergence, 31 g ai/ha, visual injury after approx. 10 d, 0 to 100 scale, 0 no effect, 100 complete control, read-out: Plant response rating, Foxtail, Giant
  pest or weed control at 31 g/ha: 70%
[16]
  plant injury at 125 g/ha: 0%
[17]
  pest or weed control at 250 g/ha: 60%
[18]
  pest or weed control at 250 g/ha: 90%
[19]
  pest or weed control at 250 g/ha: 25%
[20]
  pest or weed control at 250 g/ha: 0%
